From US20240425496A1, “AZETIDINYL PYRIMIDINES AND USES THEREOF” (Aerie Pharmaceuticals, Inc., priority 2021, published 2024) come the findings set out here.

One assay addresses TYK2 (Homo sapiens (Human), UniProt P29597). Briefly: JAK kinase assay (KINASE-GLO luminescent), TYK2 enzyme. Format: biochemical. The note with it: TYK2 enzyme 10 nM, Abl peptide substrate. As to the method: (§1) All compounds were initially prepared as 10 mM stocks in anhydrous dimethylsulfoxide (DMSO). […] Test compounds were then serially diluted 1:5 in DMSO for an 11-point concentration response and further diluted in the assay buffer bringing all compound concentrations to a final range of 100 μM to 10 μM in 2.5% DMSO. […] The reaction was initiated by the addition of 10 μL of 4× stock solution ATP (2 μM). Reactions were thoroughly mixed manually, covered, and allowed to incubate at room temperature for 75 min. Protein kinase activity was quantitated using Promega's KINASE-GLO™ luminescent Kinase Assay Kit according to the manufacturer's directions. ATP concentrations remaining in Test wells following the termination of the enzymatic reaction were compared against control wells containing equivalent amounts of DMSO containing no inhibitor (CTRL). […] Percent of Control (POC) values were determined for each concentration of compound tested according to the equation: […]
(§2) IC50 values were calculated using the following 4-parameter logistic curve-fitting algorithm:
(§3) Compounds were prepared in the exact same manner as described in the ROCK Kinase Assay with the exception to the substrate and enzyme. […] All other steps and solutions remain identical to the ROCK Kinase Assay above.
In general terms: Kinase-Glo measures the ATP left after a reaction by luminescence.

A further assay deals with JAK1 (Homo sapiens (Human), UniProt P23458). The assay is described as follows: JAK kinase assay (KINASE-GLO luminescent), JAK1 enzyme. In kind it is biochemical. The settings on record: JAK1 enzyme 10 nM, Abl peptide substrate. As to the method: as §1, §2, §3
JAK1, sequence (P23458 whole entry, species assumed): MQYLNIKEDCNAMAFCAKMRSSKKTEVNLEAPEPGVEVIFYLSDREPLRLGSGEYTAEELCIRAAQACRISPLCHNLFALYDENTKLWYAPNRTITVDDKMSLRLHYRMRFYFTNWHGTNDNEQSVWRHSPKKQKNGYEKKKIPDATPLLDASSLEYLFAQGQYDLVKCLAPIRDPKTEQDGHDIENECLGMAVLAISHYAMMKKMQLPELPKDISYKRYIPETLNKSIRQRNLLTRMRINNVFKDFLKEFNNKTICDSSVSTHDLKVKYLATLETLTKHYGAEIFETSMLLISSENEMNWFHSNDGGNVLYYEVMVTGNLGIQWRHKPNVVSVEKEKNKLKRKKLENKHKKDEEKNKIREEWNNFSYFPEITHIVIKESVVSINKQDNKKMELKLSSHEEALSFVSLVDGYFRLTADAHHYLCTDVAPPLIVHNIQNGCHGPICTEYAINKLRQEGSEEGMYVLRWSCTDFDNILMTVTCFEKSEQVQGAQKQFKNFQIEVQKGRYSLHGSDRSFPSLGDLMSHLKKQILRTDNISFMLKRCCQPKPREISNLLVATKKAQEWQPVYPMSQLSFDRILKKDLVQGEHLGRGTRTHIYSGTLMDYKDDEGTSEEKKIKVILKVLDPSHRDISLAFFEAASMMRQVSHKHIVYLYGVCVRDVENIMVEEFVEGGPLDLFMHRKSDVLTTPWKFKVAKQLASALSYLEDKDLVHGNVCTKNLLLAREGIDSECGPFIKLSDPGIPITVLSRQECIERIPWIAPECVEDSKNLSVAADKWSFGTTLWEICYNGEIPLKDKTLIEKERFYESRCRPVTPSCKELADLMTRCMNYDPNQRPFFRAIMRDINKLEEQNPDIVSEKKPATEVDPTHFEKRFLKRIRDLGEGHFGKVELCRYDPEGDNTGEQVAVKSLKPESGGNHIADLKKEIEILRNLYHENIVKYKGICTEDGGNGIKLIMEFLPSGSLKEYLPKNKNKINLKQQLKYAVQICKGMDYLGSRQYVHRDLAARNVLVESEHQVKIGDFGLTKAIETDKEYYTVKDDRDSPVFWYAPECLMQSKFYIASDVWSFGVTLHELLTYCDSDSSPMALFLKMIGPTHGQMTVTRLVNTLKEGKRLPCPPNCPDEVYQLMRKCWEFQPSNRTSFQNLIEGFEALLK

As usually defined, the IC50 is the concentration that gives 50% inhibition. Read a low IC50 as greater potency in that assay.

TYK2, sequence (P29597 whole entry, species assumed): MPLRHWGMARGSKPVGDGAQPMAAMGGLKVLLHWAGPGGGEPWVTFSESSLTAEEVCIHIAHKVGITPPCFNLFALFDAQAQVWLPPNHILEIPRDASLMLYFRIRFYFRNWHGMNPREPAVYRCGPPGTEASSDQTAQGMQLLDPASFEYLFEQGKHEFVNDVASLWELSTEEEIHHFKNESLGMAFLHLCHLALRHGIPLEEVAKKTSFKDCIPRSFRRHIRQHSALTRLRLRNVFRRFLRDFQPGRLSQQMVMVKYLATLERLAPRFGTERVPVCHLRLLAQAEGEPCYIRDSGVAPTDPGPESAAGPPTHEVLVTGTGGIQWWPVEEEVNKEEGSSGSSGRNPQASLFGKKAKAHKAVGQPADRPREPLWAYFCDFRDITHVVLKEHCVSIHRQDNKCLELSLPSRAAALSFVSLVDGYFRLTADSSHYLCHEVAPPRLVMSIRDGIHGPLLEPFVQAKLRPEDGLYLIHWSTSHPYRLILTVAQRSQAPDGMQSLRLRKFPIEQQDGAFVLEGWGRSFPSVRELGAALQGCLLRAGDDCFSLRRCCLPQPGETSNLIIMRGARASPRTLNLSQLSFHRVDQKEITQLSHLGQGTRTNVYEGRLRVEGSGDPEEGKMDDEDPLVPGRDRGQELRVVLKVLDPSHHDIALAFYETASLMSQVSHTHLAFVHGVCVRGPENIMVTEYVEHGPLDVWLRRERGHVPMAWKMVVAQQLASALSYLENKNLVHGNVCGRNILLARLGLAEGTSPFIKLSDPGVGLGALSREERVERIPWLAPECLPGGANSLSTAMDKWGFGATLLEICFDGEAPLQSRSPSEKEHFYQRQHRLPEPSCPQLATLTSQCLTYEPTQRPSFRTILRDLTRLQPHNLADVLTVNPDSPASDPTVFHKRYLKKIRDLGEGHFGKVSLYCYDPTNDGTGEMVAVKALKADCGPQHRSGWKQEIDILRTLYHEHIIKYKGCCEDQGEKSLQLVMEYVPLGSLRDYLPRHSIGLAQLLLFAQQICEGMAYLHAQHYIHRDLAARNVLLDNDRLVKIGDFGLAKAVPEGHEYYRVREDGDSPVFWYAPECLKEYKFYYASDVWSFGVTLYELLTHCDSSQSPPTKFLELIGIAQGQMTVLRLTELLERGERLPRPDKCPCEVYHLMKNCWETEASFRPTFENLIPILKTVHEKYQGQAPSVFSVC

As to `Cc1cc(Nc2ncc(C)c(N3CC(CC#N)(N4CCN5CCC[C@@H]5C4)C3)n2)sn1` [E61a], the concentration for half-maximal inhibition (IC50) on TYK2 and against JAK1 was below 50 nM throughout.
Turning to `Cc1cc(Nc2ncc(C)c(N3CC(CC#N)(N4CCN5CCC[C@H]5C4)C3)n2)sn1` [E62a], the IC50 against TYK2 and against JAK1 was below 50 nM in each case.
For `C#CCC1(O)CN(c2nc(Nc3cc(C)ns3)ncc2C)C1` [E63a], the 50% inhibitory concentration (IC50) on TYK2 is below 50 nM; against JAK1, below 100 nM.
The matching figures for `Cc1cc(Nc2ncc(C)c(N3CC(CC#N)(N4CCN(C5CCC5)CC4)C3)n2)sn1` [E64a]: below 10 nM and below 10 nM.
As for `CCOC(=O)CC1(N2CCCCC2)CN(c2nc(Nc3cc(C)ns3)ncc2C)C1` [E65a], the concentration for half-maximal inhibition (IC50) was below 50 nM against TYK2 and below 1000 nM at JAK1.
The matching figures for `Cc1cc(Nc2ncc(C)c(N3CC(CCO)(N4CCCCC4)C3)n2)sn1` [E66a]: below 10 nM and below 50 nM.
The matching figures for `Cc1cc(Nc2ncc(C)c(N3CC(CC#N)(N4CCN5C[C@H](F)C[C@H]5C4)C3)n2)sn1` [E67a]: below 10 nM and below 10 nM.
The matching figures for `Cc1cc(Nc2ncc(C)c(N3CC(CC#N)(NCC4CN(C)C4)C3)n2)sn1` [E68a]: below 500 nM and below 500 nM.
As for `COC1CCN(C2(CC#N)CN(c3nc(Nc4cc(C)ns4)ncc3C)C2)CC1` [E69a], the IC50 against TYK2 and on JAK1 was below 10 nM in each case.
Take `Cc1cc(Nc2ncc(C)c(N3CC(CC#N)(N4CCN5C[C@@H](F)C[C@@H]5C4)C3)n2)sn1` [E70a]: the IC50 is below 10 nM against TYK2 and below 20 nM against JAK1.
Taken in the same sequence, the figures for `CO[C@H]1C[C@H]2CN(C3(CC#N)CN(c4nc(Nc5cc(C)ns5)ncc4C)C3)CCN2C1` [E71a] were below 10 nM and below 10 nM.
Taken in the same sequence, the figures for `CO[C@@H]1C[C@H]2CN(C3(CC#N)CN(c4nc(Nc5cc(C)ns5)ncc4C)C3)CCN2C1` [E72a] were below 10 nM and below 10 nM.
Taken in the same sequence, the figures for `Cc1cc(Nc2ncc(C)c(N3CC(CC#N)(N4CCN5CCN(C)CC5C4)C3)n2)sn1` (stereo not shown) [E73a] were below 100 nM and below 100 nM.
Turning to `Cc1cc(Nc2ncc(F)c(N3CC(CC#N)(N4CCCCC4)C3)n2)sn1` [E74a], the IC50 at TYK2 is below 20 nM; against JAK1 it was below 500 nM.
Regarding `COCCN1CCN(C2(CC#N)CN(c3nc(Nc4cc(C)ns4)ncc3C)C2)CC1` [E75], the half-inhibitory concentration (IC50) against TYK2 and against JAK1 was below 10 nM each time.
Consider `Cc1cc(Nc2ncc(C)c(N3CC(CC#N)(N4CCN5C[C@H](F)C[C@@H]5C4)C3)n2)sn1` [E75a], for which the IC50 was below 10 nM against TYK2 and below 50 nM on JAK1.
The matching figures for `Cc1cc(Nc2ncc(C)c(N3CC(CC#N)(N4CCN5CC6(CC6)C[C@H]5C4)C3)n2)sn1` [E76a]: below 10 nM and below 10 nM.
Taken in the same sequence, the figures for `Cc1cc(Nc2ncc(C)c(N3CC(CC#N)(N4CCN5CCOC[C@@H]5C4)C3)n2)sn1` [E77a] were below 10 nM and below 50 nM.
Taken in the same sequence, the figures for `Cc1cc(Nc2ncc(C)c(N3CC(CC#N)(N4CCN5CCOC[C@H]5C4)C3)n2)sn1` [E78a] were below 10 nM and below 10 nM.
Regarding `Cc1cnc(Nc2ccc(C3(O)COC3)cc2)nc1N1CC(CC#N)(N2CCN(C)CC2)C1` [E79a], the 50% inhibitory concentration (IC50) at TYK2 is below 10 nM; against JAK1, below 50 nM.
Taken in the same sequence, the figures for `Cc1cnc(Nc2cnn(C)c2)nc1N1CC(CC#N)(N2CCN(C)CC2)C1` [E80, 2-(1-(5-methyl-2-((1-methyl-1H-pyrazol-4-yl)amino)pyrimidin-4-yl)-3-(4-methylpiperazin-1-yl)azetidin-3-yl)acetonitrile] were below 20 nM and below 20 nM.
Taken in the same sequence, the figures for `Cc1cc(Nc2ncc(C)c(N3CC(CC#N)(N4CCN5CCCC[C@H]5C4)C3)n2)sn1` [E80a] were below 10 nM and below 10 nM.
The matching figures for `Cc1cnc(Nc2cnn(C)c2)nc1N1CC(CC#N)(N2CCC3(CC2)CC3(F)F)C1` [E81]: below 10 nM and below 10 nM.
